From US6683055B1, “Low molecular weight inhibitors of complement proteases” (BASF Aktiengesellschaft, priority 1999, dated 2004)
Structures can show the parent of a compound that is named as a salt.

Experiments:
Format in all cases: biochemical
factor D = molecular target: T1, factor D (Homo sapiens, UniProt P00746); assay: Inhibition of the protease factor D (Example D); conditions: substrate Z-Lys-SBzl, run along as inhibitor in the test
T1 construct: purchased Calbiochem 341273
Text: Example D Testing of Inhibitors for Inhibition of the Protease Factor D In the alternative route of the complement system, factor D performs a central function. Owing to the low plasma concentration of factor D, the enzymatic step involving the cleavage of factor B by factor D constitutes the rate-determining step in the alternative route of complement activation. Owing to the limiting role which this enzyme plays in the alternative route, factor D is a target for the inhibition of the complement system. The commercial substrate Z-Lys-SBzl*HCl is converted by the enzyme factor D (literature: Kam, C. M. et al., J. Biol. Chem. 262, 1987, 3444-3451). The detection of the cleaved substrate is effected by reaction with Ellmann's reagent. The product formed is detected spectrophotometrically. The reaction can be monitored online. This permits measurements of enzyme kinetics. [table] The batches are pipetted together into microtiter plates. After mixing of buffer, substrate and Ellmann's reagent (possibly inhibitors), the enzyme reaction is started by adding in each case 5 μl of factor D. Incubation takes place at room temperature for 60 minutes. Measurement at 405 nm for 1 hour at 3 minute intervals The result is plotted graphically. […]

[1] = molecular target: T2, C1r from human plasma, activated, two-chain form (Homo sapiens, UniProt P00736); assay: Color substrate test for C1r inhibition (Example A); conditions: amidolytic C1r activity, substrate Cbz-Gly-Arg-S-Bzl; read-out: C1R IC50 according to Example A
T2 construct: from tissue; host or cells: human plasma
T2 sequence (P00736 18-463 partner limits assumed): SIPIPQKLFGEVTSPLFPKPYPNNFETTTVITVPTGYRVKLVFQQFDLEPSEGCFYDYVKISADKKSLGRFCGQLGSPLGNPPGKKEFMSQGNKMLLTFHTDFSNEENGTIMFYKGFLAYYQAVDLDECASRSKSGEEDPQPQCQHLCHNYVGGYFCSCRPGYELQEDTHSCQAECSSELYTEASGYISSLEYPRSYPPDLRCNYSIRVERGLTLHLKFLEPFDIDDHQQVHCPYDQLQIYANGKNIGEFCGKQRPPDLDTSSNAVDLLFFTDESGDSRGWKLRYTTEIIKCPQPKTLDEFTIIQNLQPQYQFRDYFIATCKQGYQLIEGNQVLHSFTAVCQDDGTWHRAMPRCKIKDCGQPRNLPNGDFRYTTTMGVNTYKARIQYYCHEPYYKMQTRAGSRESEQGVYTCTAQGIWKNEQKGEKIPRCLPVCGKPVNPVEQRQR
T2 sequence (P00736 464-705 limits assumed): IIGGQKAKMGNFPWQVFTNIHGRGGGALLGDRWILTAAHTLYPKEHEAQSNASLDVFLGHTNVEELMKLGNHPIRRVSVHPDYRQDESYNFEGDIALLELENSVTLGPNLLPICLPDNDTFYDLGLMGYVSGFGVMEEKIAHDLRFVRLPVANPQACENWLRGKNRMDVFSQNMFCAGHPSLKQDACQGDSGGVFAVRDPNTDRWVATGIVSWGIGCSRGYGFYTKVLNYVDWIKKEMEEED
Text: Color Substrate Test for C1r Inhibition

[2] = molecular target: T3, C1s from human plasma, activated, two-chain form (Homo sapiens, UniProt P09871); assay: Color substrate test for C1s inhibition (Example B); conditions: amidolytic C1s activity, substrate Cbz-Gly-Arg-S-Bzl; read-out: C1S IC50 according to Example B
T3 construct: from tissue; host or cells: human plasma
T3 sequence (P09871 16-437 partner limits assumed): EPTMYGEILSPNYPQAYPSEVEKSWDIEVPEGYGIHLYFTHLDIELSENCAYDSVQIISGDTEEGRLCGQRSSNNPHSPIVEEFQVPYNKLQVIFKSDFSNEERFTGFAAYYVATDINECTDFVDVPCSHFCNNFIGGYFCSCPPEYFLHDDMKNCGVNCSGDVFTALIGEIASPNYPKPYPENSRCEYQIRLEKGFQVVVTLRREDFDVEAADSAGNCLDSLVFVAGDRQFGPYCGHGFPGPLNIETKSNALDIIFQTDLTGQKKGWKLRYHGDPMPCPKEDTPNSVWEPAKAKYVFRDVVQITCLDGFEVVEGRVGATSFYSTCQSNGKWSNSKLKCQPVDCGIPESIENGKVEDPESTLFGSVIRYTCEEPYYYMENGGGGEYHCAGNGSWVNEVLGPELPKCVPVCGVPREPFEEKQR
T3 sequence (P09871 438-688 limits assumed): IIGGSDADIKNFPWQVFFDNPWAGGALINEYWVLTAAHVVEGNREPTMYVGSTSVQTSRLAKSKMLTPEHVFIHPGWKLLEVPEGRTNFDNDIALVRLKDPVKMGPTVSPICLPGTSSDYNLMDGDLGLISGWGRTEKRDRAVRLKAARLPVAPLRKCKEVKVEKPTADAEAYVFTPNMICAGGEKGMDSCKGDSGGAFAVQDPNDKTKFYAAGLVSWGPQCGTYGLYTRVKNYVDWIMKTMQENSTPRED
Text: Material and Methods: Color Subrate Test for C1s Inhibition

T1 sequence (P00746 26-253): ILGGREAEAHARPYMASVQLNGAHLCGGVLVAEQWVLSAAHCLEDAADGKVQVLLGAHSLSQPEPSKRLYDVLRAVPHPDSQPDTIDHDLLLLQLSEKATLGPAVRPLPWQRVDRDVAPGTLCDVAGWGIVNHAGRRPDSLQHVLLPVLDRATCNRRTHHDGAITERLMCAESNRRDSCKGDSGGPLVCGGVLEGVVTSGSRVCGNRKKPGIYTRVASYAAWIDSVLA

inhibition of factor D (factor D)	IC50 [1]	IC50 [2]	Molecule
effective inhibitor			N=C(N)c1ccc2cc(OC(=O)c3ccc(N=C(N)N)cc3)ccc2c1 [FUT-175]
	4 µM	1 µM	N=C(N)c1ccc(CNC(=O)[C@@H]2C=CCN2C(=O)[C@@H](CC2CCCCC2)NS(=O)(=O)Cc2ccc(N)cc2)cn1 [Example 21, H2N-p-C6H4CH2—SO2-(D)Cha-Pyr-NH-3-(6-am)-pico-HCl]
	> 100 µM	20 µM	N=C(N)c1ccc(CNC(=O)[C@@H]2C=CCN2C(=O)CN(Cc2ccccc2)Cc2ccccc2)cn1 [Example 28, (C6H5—CH2)2-Gly-Pyr-NH-3-(6-am)-pico.CH3COOH]
	10 µM	5 µM	N=C(N)c1csc(CNC(=O)[C@@H]2C=CCN2C(=O)[C@@H](CC2CCCCC2)NCC(=O)O)c1 [Example 38, HOOC—CH2-(D)Cha-Pyr-NH—CH2-5-(3-am)-thioph.CH3COOH]
	10 µM	30 µM	N=C(N)c1ccc(CNC(=O)[C@@H]2C=CCN2C(=O)[C@@H](CC2CCCCC2)NCC(=O)O)s1 [Example 32, HOOC—CH2-(D)Cha-Pyr-NH—CH2-5-(2-am)-thioph.CH3COOH]
	1 µM	1 µM	N=C(N)c1csc(CNC(=O)C2C=CCN2C(=O)C(NCC(=O)O)C2CCCCC2)c1Cl (stereo not drawn) [Example 49, HOOC—CH2-(D)Chg-Pyr-NH—CH2-5-(4-Cl-3-am)-thioph.CH3COOH]
	0.9 µM	0.6 µM	CC(C)(C)OC(=O)Nc1ccc(CS(=O)(=O)N[C@@H](C(=O)N2CC=C[C@H]2C(=O)NCc2ccc(C(=N)N)nc2)C2CCCCC2)cc1 [Example 22, Boc-NH-p-C6H4—CH2—SO2-(D)Chg-Pyr-NH-3-(6-am)-pico.CH3COOH]
	40 µM	20 µM	N=C(N)c1csc(CNC(=O)C2SCCN2C(=O)[C@@H](CC2CCCCC2)NCC(=O)O)c1 (stereo partly drawn) [Example 46, HOOC—CH2-(D)Cha-Thz-2-CO—NH—CH2-5-(3-am)-thioph.2HCl]
	50 µM	20 µM	CCCCCCCCS(=O)(=O)N[C@H](Cc1ccccc1)C(=O)N1CCC[C@H]1C(=O)NCc1ccc(C(=N)N)cc1 [Example 2, n-Octyl-SO2-(D)Phe-Pro-NH-p-amb.CH3COOH]
	10 µM	50 µM	N=C(N)c1csc(CNC(=O)[C@@H]2CC3CCCCC3N2C(=O)[C@@H](CC2CCCCC2)NCC(=O)O)c1 (stereo partly shown) [Example 47, HOOC—CH2-(D)Cha-(L)Ohi-2-CO—NH—CH2-5-(3-am)-thioph.HCl]
	0.9 µM	0.6 µM	N=C(N)c1ccc(CNC(=O)[C@@H]2C=CCN2C(=O)[C@H](NCC(=O)O)C2CCCCC2)s1 [Example 29, HOOC—CH2-(D)Chg-Pyr-NH-CH2-5-(2-am)-thioph.CH3COOH]
	40 µM	4 µM	COC(=O)CS(=O)(=O)N[C@@H](C(=O)N1CCC[C@H]1C(=O)NCc1ccc(C(=N)N)nc1)C1CCCCC1 [Example 17, CH3OOC—CH2—SO2-(D)Chg-Pro-NH-3-(6-am)-pico.CH3COOH]
	> 100 µM	2 µM	N=C(N)c1ccc(CNC(=O)[C@@H]2CCCN2C(=O)[C@H](NCCCCC(=O)O)C2CCCCC2)cn1 [Example 26, HOOC—(CH2 )4-(D)Chg-Pro-NH-3-(6-am)-pico.CH3COOH]
	50 µM	6 µM	CCOC(=O)CCCCCN[C@@H](C(=O)N1CCC[C@H]1C(=O)NCc1ccc(C(=N)N)nc1)C1CCCCC1 [Example 25, C2H5OOC—(CH2)5-(D)Chg-Pro-NH-3-(6-am)-pico.CH3COOH]
	0.7 µM	1 µM	N=C(N)c1csc(CNC(=O)[C@@H]2C=CCN2C(=O)C(NCC(=O)O)C2CCCC2)c1 (stereo partly drawn) [Example 42, HOOC—CH2-Cpg-Pyr-NH—CH2-5-(3-am)-thioph.CH3COOH]
	10 µM	20 µM	CC(C)(C)OC(=O)CCCN[C@@H](C(=O)N1CCC[C@H]1C(=O)NCc1ccc(C(=N)N)nc1)C1CCCCC1 [Example 27, t-BUOOC—(CH2)3-(D)Chg-Pro-NH-3-(6-am)-pico.CH3COOH]
	8 µM	20 µM	HOOC—CH2-(D)Cha-Pyr-NH—CH2-5-(3-Me-2-am)-thioph.CH3COOH [Example 53]
	30 µM	30 µM	N=C(N)c1ccc(CNC(=O)[C@@H]2C=CCN2C(=O)C(CCC2CCCCC2)NCC(=O)O)cn1 (stereo partly drawn) [Example 19, HOOC—CH2-HCha-Pyr-NH-3-(6-am)-pico]
	2 µM	2 µM	N=C(N)c1csc(CNC(=O)[C@@H]2C=CCN2C(=O)C(NCC(=O)O)C2CCCCCC2)c1 (stereo partly shown) [Example 41, HOOC—CH2-Cheg-Pyr-NH—CH2-5-(3-am)-thioph.CH3COOH]
